How the values were obtained:
[1] = Addition of flavor active peptide to unflavored cheese sauce, evaluation of imparted flavor; details: 0.015% (w/w based) peptide added to unflavored cheese sauce of Table 1
Procedure: Addition of the Gly-Pro-Phe-Pro-Ile (SEQ ID NO:2) peptide to the unflavored cheese sauce listed in Table 1 was carried out to evaluate the flavor imparted by the flavor active peptide. The cheese sauce formulation can be described as having a mild, Monterey Jack cheese sauce flavor with some salty and savory notes.

[2] = Addition of flavor active peptide to seasoned microwave popcorn, evaluation of imparted flavor; details: approximately 0.1% peptide in popped microwave popcorn with White Cheddar Snack Seasoning (Table 3)
Procedure: Addition of the Gly-Pro-Phe-Pro-Ile (SEQ ID NO:2) peptide to the base microwave popcorn listed in Table 2 was carried out to evaluate the flavor imparted by the flavor active peptide.
The sodium content of the resulting seasoned popcorn was 596.6 mg Na^+/1 oz serving.

Gly-Pro-Phe-Pro-Ile (GPFPI) [Gly-Pro-Phe-Pro-Ile (SEQ ID NO:2)]
flavor imparted by the flavor active peptide [1]: made the sauce taste more salty, creamy and dairy
flavor imparted by the flavor active peptide [2]: imparted an increase in cheesyness, mouthfeel, and some umami character

Source: US9167837B2, “Peptides imparting umami, salt, dairy and bitter flavor” (International Flavors & Fragrances Inc., priority 2007, dated 2015)
